Data as given in patent publication US9980943B2, “Methods of treating muscular dystrophy” (BOARD OF REGENTS OF THE NEVADA SYSTEM OF HIGHER EDUCATION, …, priority 2013, dated 2018).
Where two headings read alike, the source gives them in different places.

Assays:
Assay type in all cases: cell-based, mouse
[1] = tested on: α7 integrin (LacZ reporter in α7βgal+/− myoblasts); assay: Myoblast α7+/LacZ integrin FDG assay (Burkin assay in myoblasts, 96-well); conditions: α7+/LacZ myoblasts, 96-well; for fold induction at 0.5 µM / fold induction at 1 µM / fold induction at 5 µM / fold induction at 10 µM / fold induction at 20 µM / fold induction at 40 µM: Mus musculus, Myoblast, 48 h
[2] = tested on: α7 integrin (LacZ reporter in α7+/LacZ myotubes); assay: Myotube α7 integrin FDG assay (Burkin assay in myotubes, 96-well); conditions: myotubes; for fold induction at 0.5 µM / fold induction at 1 µM / fold induction at 5 µM / fold induction at 10 µM / fold induction at 20 µM / fold induction at 40 µM: Mus musculus, Myotube
[3] = tested on: β-galactosidase in CMV-LacZ C2C12 myotubes; assay: CMV-LacZ secondary screen in C2C12 myotubes (β-Gal stabilizing assay); conditions: for CMV-LACZ in Myotubes, signal relative to DMSO / fold induction at 5 µM / fold induction at 10 µM / fold induction at 20 µM / fold induction at 40 µM: C2C12 CMV-LacZ myotubes, fold relative to DMSO; for fold induction at 5 µM / fold induction at 10 µM / fold induction at 20 µM / fold induction at 40 µM: Mus musculus; for fold induction at 5 µM: C2C12, read-out: CMV-LACZ in Myotubes, signal relative to DMSO, 5 uM; for fold induction at 10 µM: C2C12, read-out: CMV-LACZ in Myotubes, signal relative to DMSO, 10 uM; for fold induction at 20 µM: C2C12, read-out: CMV-LACZ in Myotubes, signal relative to DMSO, 20 uM; for fold induction at 40 µM: C2C12, read-out: CMV-LACZ in Myotubes, signal relative to DMSO, 40 uM; for CMV-LACZ in Myotubes (β-galactosidase activity relative to DMSO): CMV-LacZ C2C12 myotubes, 96-well format
Outline: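 Dose-response runs at 0.5–40 μM (0.5, 1, 5, 10, 20, 40 μM; N=2 per point) used a clonal C2C12 line carrying CMV-LacZ. Cells were assayed as myoblasts or as differentiated myotubes, and β-galactosidase levels were read with the FDG fluorogenic substrate.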

[4] = 0.5 uM, read-out: Burkin Assay in Myoblasts, signal relative to DMSO
[5] = 1 uM, read-out: Burkin Assay in Myoblasts, signal relative to DMSO
[6] = 5 uM, read-out: Burkin Assay in Myoblasts, signal relative to DMSO
[7] = 10 uM, read-out: Burkin Assay in Myoblasts, signal relative to DMSO
[8] = 20 uM, read-out: Burkin Assay in Myoblasts, signal relative to DMSO
[9] = 40 uM, read-out: Burkin Assay in Myoblasts, signal relative to DMSO
[10] = 0.5 uM, read-out: Burkin Assay in Myotubes, α7 integrin LacZ reporter signal relative to DMSO
[11] = 1 uM, read-out: Burkin Assay in Myotubes, α7 integrin LacZ reporter signal relative to DMSO
[12] = 5 uM, read-out: Burkin Assay in Myotubes, α7 integrin LacZ reporter signal relative to DMSO
[13] = 10 uM, read-out: Burkin Assay in Myotubes, α7 integrin LacZ reporter signal relative to DMSO
[14] = 20 uM, read-out: Burkin Assay in Myotubes, α7 integrin LacZ reporter signal relative to DMSO
[15] = 40 uM, read-out: Burkin Assay in Myotubes, α7 integrin LacZ reporter signal relative to DMSO

SMILES	Burkin Assay in Myoblasts, signal relative to DMSO ([1]; 0.5 uM)	Burkin Assay in Myoblasts, signal relative to DMSO ([1]; 1 uM)	Burkin Assay in Myoblasts, signal relative to DMSO ([1]; 5 uM)	Burkin Assay in Myoblasts, signal relative to DMSO ([1]; 10 uM)	Burkin Assay in Myoblasts, signal relative to DMSO ([1]; 20 uM)	Burkin Assay in Myoblasts, signal relative to DMSO ([1]; 40 uM)	Burkin Assay in Myotubes, α7 integrin LacZ reporter signal relative to DMSO ([2]; 0.5 uM)	Burkin Assay in Myotubes, α7 integrin LacZ reporter signal relative to DMSO ([2]; 1 uM)	Burkin Assay in Myotubes, α7 integrin LacZ reporter signal relative to DMSO ([2]; 5 uM)	Burkin Assay in Myotubes, α7 integrin LacZ reporter signal relative to DMSO ([2]; 10 uM)	Burkin Assay in Myotubes, α7 integrin LacZ reporter signal relative to DMSO ([2]; 20 uM)	Burkin Assay in Myotubes, α7 integrin LacZ reporter signal relative to DMSO ([2]; 40 uM)	CMV-LACZ in Myotubes, signal relative to DMSO ([3]; 5 uM)	CMV-LACZ in Myotubes, signal relative to DMSO ([3]; 10 uM)	CMV-LACZ in Myotubes, signal relative to DMSO ([3]; 20 uM)	CMV-LACZ in Myotubes, signal relative to DMSO ([3]; 40 uM)	fold induction at 5 µM [3]	fold induction at 10 µM [3]	fold induction at 20 µM [3]	fold induction at 40 µM [3]	further results
Cc1cccc(NC(=O)c2cc3ccccc3oc2=O)c1 [MLS001209245-01]	1.039	1.132	1.021	1.071	1.1	1.039	1.113	1.245	0.9667	0.9979	0.6876	0.5729	0.8568	0.9675	0.9662	0.9952	–	–	–	–	–
CCCNC(=S)N1CCC(NC(=O)c2ccc(OC)cc2)CC1 [MLS001211651-01]	1.061	1.124	1.011	0.972	0.9909	1.026	0.8543	0.913	1.116	1.025	1.076	1.027	0.8714	0.8433	0.8465	0.977	–	–	–	–	–
Cl.O=C(CN1CCOCC1)NCc1cc([N+](=O)[O-])ccc1O [MLS001211976-01]	0.9583	0.946	0.9018	0.9154	0.9417	0.8952	1.032	1.2336	1.241	1.199	1.099	1.1302	0.8547	0.9979	0.9697	1.014	–	–	–	–	–
COc1ccc(Nc2ncnc3ccc(C)cc23)cc1 [MLS001212498-01]	–	–	–	–	–	–	–	–	–	–	–	–	–	–	–	–	0.85	0.784	0.749	0.848	fold induction at 0.5 µM [1, 4]: 1.05; fold induction at 1 µM [1, 5]: 1.2; fold induction at 5 µM [1, 6]: 1.18; fold induction at 10 µM [1, 7]: 1.31; fold induction at 20 µM [1, 8]: 1.29; fold induction at 40 µM [1, 9]: 1.4; fold induction at 0.5 µM [2, 10]: 0.941; fold induction at 1 µM [2, 11]: 1.12; fold induction at 5 µM [2, 12]: 1.11; fold induction at 10 µM [2, 13]: 1.34; fold induction at 20 µM [2, 14]: 1.16; fold induction at 40 µM [2, 15]: 1.16
COc1ccc(-n2c(C)c(C(C)=O)c3cc(OC(C)=O)ccc32)cc1 [MLS001212998-01]	–	–	–	–	–	–	–	–	–	–	–	–	–	–	–	–	0.78	0.908	0.972	0.783	fold induction at 0.5 µM [1, 4]: 1.19; fold induction at 1 µM [1, 5]: 1.2; fold induction at 5 µM [1, 6]: 1.45; fold induction at 10 µM [1, 7]: 1.54; fold induction at 20 µM [1, 8]: 1.36; fold induction at 40 µM [1, 9]: 1.3; fold induction at 0.5 µM [2, 10]: 1.14; fold induction at 1 µM [2, 11]: 1.1; fold induction at 5 µM [2, 12]: 1.46; fold induction at 10 µM [2, 13]: 1.45; fold induction at 20 µM [2, 14]: 1.45; fold induction at 40 µM [2, 15]: 1.05
NS(=O)(=O)c1ccc(NC(=O)c2cc(-c3ccccc3O)n[nH]2)cc1 [MLS001214443-01]	–	–	–	–	–	–	–	–	–	–	–	–	–	–	–	–	–	–	–	–	Burkin Assay in Myoblasts, value relative to DMSO ([1]; 0.5 uM): 0.9203; Burkin Assay in Myoblasts, value relative to DMSO ([1]; 1 uM): 0.8074; Burkin Assay in Myoblasts, value relative to DMSO ([1]; 5 uM): 0.7787; Burkin Assay in Myoblasts, value relative to DMSO ([1]; 10 uM): 0.8173; Burkin Assay in Myoblasts, value relative to DMSO ([1]; 20 uM): 0.9132; Burkin Assay in Myoblasts, value relative to DMSO ([1]; 40 uM): 0.9313; Burkin Assay in Myotubes (signal relative to DMSO) ([2]; 0.5 uM): 0.8262; Burkin Assay in Myotubes (signal relative to DMSO) ([2]; 1 uM): 0.9018; Burkin Assay in Myotubes (signal relative to DMSO) ([2]; 5 uM): 0.9442; Burkin Assay in Myotubes (signal relative to DMSO) ([2]; 10 uM): 1.193; Burkin Assay in Myotubes (signal relative to DMSO) ([2]; 20 uM): 1.154; Burkin Assay in Myotubes (signal relative to DMSO) ([2]; 40 uM): 1.083; CMV-LACZ in Myotubes (β-galactosidase activity relative to DMSO) ([3]; 5 uM): 0.9737; CMV-LACZ in Myotubes (β-galactosidase activity relative to DMSO) ([3]; 10 uM): 1.072; CMV-LACZ in Myotubes (β-galactosidase activity relative to DMSO) ([3]; 20 uM): 0.9507; CMV-LACZ in Myotubes (β-galactosidase activity relative to DMSO) ([3]; 40 uM): 0.9022
CC(=O)Nc1c(-c2ccc(Cl)cc2)c(=O)c2ccccc2n1C [MLS001214461-01]	–	–	–	–	–	–	–	–	–	–	–	–	0.8137	0.9363	0.9167	0.9566	–	–	–	–	Burkin Assay in Myoblasts, value relative to DMSO ([1]; 0.5 uM): 1.064; Burkin Assay in Myoblasts, value relative to DMSO ([1]; 1 uM): 0.9241; Burkin Assay in Myoblasts, value relative to DMSO ([1]; 5 uM): 0.8964; Burkin Assay in Myoblasts, value relative to DMSO ([1]; 10 uM): 0.8123; Burkin Assay in Myoblasts, value relative to DMSO ([1]; 20 uM): 0.8472; Burkin Assay in Myoblasts, value relative to DMSO ([1]; 40 uM): 0.767; Burkin Assay in Myotubes (signal relative to DMSO) ([2]; 0.5 uM): 1.207; Burkin Assay in Myotubes (signal relative to DMSO) ([2]; 1 uM): 0.9586; Burkin Assay in Myotubes (signal relative to DMSO) ([2]; 5 uM): 1.072; Burkin Assay in Myotubes (signal relative to DMSO) ([2]; 10 uM): 0.9457; Burkin Assay in Myotubes (signal relative to DMSO) ([2]; 20 uM): 1.087; Burkin Assay in Myotubes (signal relative to DMSO) ([2]; 40 uM): 0.8844
O=C(NCCc1ccc(F)cc1)N[C@@H](Cc1ccccc1)C(=O)O [MLS001214704-01]	–	–	–	–	–	–	–	–	–	–	–	–	–	–	–	–	0.885	1.28	0.933	0.914	fold induction at 0.5 µM ([1]; 0.5 uM, read-out: Burkin Assay in Myoblasts, value relative to DMSO): 1.11; fold induction at 1 µM ([1]; 1 uM, read-out: Burkin Assay in Myoblasts, value relative to DMSO): 1.3; fold induction at 5 µM ([1]; 5 uM, read-out: Burkin Assay in Myoblasts, value relative to DMSO): 1.08; fold induction at 10 µM ([1]; 10 uM, read-out: Burkin Assay in Myoblasts, value relative to DMSO): 1.19; fold induction at 20 µM ([1]; 20 uM, read-out: Burkin Assay in Myoblasts, value relative to DMSO): 0.985; fold induction at 40 µM ([1]; 40 uM, read-out: Burkin Assay in Myoblasts, value relative to DMSO): 1.05; fold induction at 0.5 µM ([2]; 0.5 uM, read-out: Burkin Assay in Myotubes (signal relative to DMSO)): 0.976; fold induction at 1 µM ([2]; 1 uM, read-out: Burkin Assay in Myotubes (signal relative to DMSO)): 1.11; fold induction at 5 µM ([2]; 5 uM, read-out: Burkin Assay in Myotubes (signal relative to DMSO)): 1.07; fold induction at 10 µM ([2]; 10 uM, read-out: Burkin Assay in Myotubes (signal relative to DMSO)): 1.11; fold induction at 20 µM ([2]; 20 uM, read-out: Burkin Assay in Myotubes (signal relative to DMSO)): 1.06; fold induction at 40 µM ([2]; 40 uM, read-out: Burkin Assay in Myotubes (signal relative to DMSO)): 1.16
